Laboratory results from PubChem BioAssay (NCI).
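Abbreviation: GI50, concentration required for 50% inhibition of growth. TGI denotes the concentration required for complete inhibition of growth.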

How the values were obtained:
Test in all cases: inhibition of tumour cell growth, NCI panel, 384-well format
786-0 renal = test system: 786-0 renal
A498 renal = test system: A498 renal
A549 NSCLC = test system: A549 NSCLC
ACHN renal = test system: ACHN renal
BT-549 breast = test system: BT-549 breast
CAKI-1 renal = test system: CAKI-1 renal
CCRF-CEM leukemia = test system: CCRF-CEM leukemia
DU-145 prostate = test system: DU-145 prostate
EKVX NSCLC = test system: EKVX NSCLC
HCC-2998 colon = test system: HCC-2998 colon
HL-60(TB) leukemia = test system: HL-60(TB) leukemia
HOP-62 NSCLC = test system: HOP-62 NSCLC
HOP-92 NSCLC = test system: HOP-92 NSCLC
HS 578T breast = test system: HS 578T breast
IGROV1 ovarian = test system: IGROV1 ovarian
K-562 leukemia = test system: K-562 leukemia
KM12 colon = test system: KM12 colon
M14 melanoma = test system: M14 melanoma
MALME-3M melanoma = test system: MALME-3M melanoma
MCF7 breast = test system: MCF7 breast
MDA-MB-231 breast = test system: MDA-MB-231 breast
MDA-MB-435 melanoma = test system: MDA-MB-435 melanoma
NCI-H226 lung = test system: NCI-H226 lung
NCI-H23 lung = test system: NCI-H23 lung
NCI-H460 NSCLC = test system: NCI-H460 NSCLC
NCI-H522 lung = test system: NCI-H522 lung
NCI/ADR-RES ovarian = test system: NCI/ADR-RES ovarian
OVCAR-3 ovarian = test system: OVCAR-3 ovarian
OVCAR-4 ovarian = test system: OVCAR-4 ovarian
OVCAR-5 ovarian = test system: OVCAR-5 ovarian
OVCAR-8 ovarian = test system: OVCAR-8 ovarian
RPMI-8226 leukemia = test system: RPMI-8226 leukemia
RXF 393 renal = test system: RXF 393 renal
SF-268 CNS = test system: SF-268 CNS
SF-539 CNS = test system: SF-539 CNS
SK-MEL-28 melanoma = test system: SK-MEL-28 melanoma
SK-MEL-5 melanoma = test system: SK-MEL-5 melanoma
SK-OV-3 ovarian = test system: SK-OV-3 ovarian
SN12C renal = test system: SN12C renal
SNB-19 CNS = test system: SNB-19 CNS
SNB-75 CNS = test system: SNB-75 CNS
SR leukemia = test system: SR leukemia
T-47D breast = test system: T-47D breast
TK-10 renal = test system: TK-10 renal
UACC-257 melanoma = test system: UACC-257 melanoma
UACC-62 melanoma = test system: UACC-62 melanoma
UO-31 renal = test system: UO-31 renal

COc1cc(C)[nH]c(=O)c1CNC(=O)c1c(C)n([C@H](C)C2CCN(CC(F)(F)F)CC2)c2ccccc12
GI50 ([…]-0 renal): 50.6 µM
TGI (786-0 renal): > 100 µM
GI50 (A498 renal): 43.1 µM
TGI (A498 renal): > 100 µM
GI50 (A549 NSCLC): 46.8 µM
TGI (A549 NSCLC): > 100 µM
GI50 (ACHN renal): 45.4 µM
TGI (ACHN renal): > 100 µM
GI50 (BT-549 breast): 27.4 µM
TGI (BT-549 breast): > 72.6 µM
GI50 (CAKI-1 renal): 63.5 µM
TGI (CAKI-1 renal): > 100 µM
GI50 (CCRF-CEM leukemia): 21.6 µM
TGI (CCRF-CEM leukemia): 43.9 µM
GI50 (DU-145 prostate): 51.1 µM
TGI (DU-145 prostate): > 100 µM
GI50 (EKVX NSCLC): 67.7 µM
TGI (EKVX NSCLC): > 100 µM
GI50 (HCC-2998 colon): 65.3 µM
TGI (HCC-2998 colon): > 100 µM
GI50 (HL-60(TB) leukemia): 33.4 µM
TGI (HL-60(TB) leukemia): > 61.6 µM
GI50 (HOP-62 NSCLC): 46.7 µM
TGI (HOP-62 NSCLC): > 100 µM
GI50 (HOP-92 NSCLC): 45.7 µM
TGI (HOP-92 NSCLC): > 100 µM
GI50 (HS 578T breast): 40.1 µM
TGI (HS 578T breast): > 100 µM
GI50 (IGROV1 ovarian): 44.1 µM
TGI (IGROV1 ovarian): > 100 µM
GI50 (K-562 leukemia): 36.3 µM
TGI (K-562 leukemia): > 100 µM
GI50 (KM12 colon): 53.8 µM
TGI (KM12 colon): > 100 µM
GI50 (M14 melanoma): > 72.8 µM
TGI (M14 melanoma): > 100 µM
GI50 (MALME-3M melanoma): > 66.1 µM
TGI (MALME-3M melanoma): > 100 µM
GI50 (MCF7 breast): 27.3 µM
TGI (MCF7 breast): > 100 µM
GI50 (MDA-MB-231 breast): 67.5 µM
TGI (MDA-MB-231 breast): > 100 µM
GI50 (MDA-MB-435 melanoma): 58.6 µM
TGI (MDA-MB-435 melanoma): > 100 µM
GI50 (NCI-H226 lung): > 51.9 µM
TGI (NCI-H226 lung): 96.9 µM
GI50 (NCI-H23 lung): > 100 µM
TGI (NCI-H23 lung): > 100 µM
GI50 (NCI-H460 NSCLC): 54.7 µM
TGI (NCI-H460 NSCLC): > 100 µM
GI50 (NCI-H522 lung): 65.2 µM
TGI (NCI-H522 lung): > 100 µM
GI50 (NCI/ADR-RES ovarian): > 100 µM
TGI (NCI/ADR-RES ovarian): > 100 µM
GI50 (OVCAR-3 ovarian): 34.2 µM
TGI (OVCAR-3 ovarian): > 96.5 µM
GI50 (OVCAR-4 ovarian): 45.5 µM
TGI (OVCAR-4 ovarian): > 100 µM
GI50 (OVCAR-5 ovarian): > 100 µM
TGI (OVCAR-5 ovarian): > 100 µM
GI50 (OVCAR-8 ovarian): > 96 µM
TGI (OVCAR-8 ovarian): > 100 µM
GI50 (RPMI-8226 leukemia): 2.4 µM
TGI (RPMI-8226 leukemia): 10.3 µM
GI50 (RXF 393 renal): 28.3 µM
TGI (RXF 393 renal): 79.7 µM
GI50 (SF-268 CNS): 39.6 µM
TGI (SF-268 CNS): > 68.2 µM
GI50 (SF-539 CNS): > 100 µM
TGI (SF-539 CNS): > 100 µM
GI50 (SK-MEL-28 melanoma): 98.2 µM
TGI (SK-MEL-28 melanoma): > 100 µM
GI50 (SK-MEL-5 melanoma): 33.5 µM
TGI (SK-MEL-5 melanoma): > 65.5 µM
GI50 (SK-OV-3 ovarian): 56.6 µM
TGI (SK-OV-3 ovarian): > 100 µM
GI50 (SN12C renal): > 80.5 µM
TGI (SN12C renal): > 100 µM
GI50 (SNB-19 CNS): > 100 µM
TGI (SNB-19 CNS): > 100 µM
GI50 (SNB-75 CNS): 42 µM
TGI (SNB-75 CNS): > 100 µM
GI50 (SR leukemia): 21.5 µM
TGI (SR leukemia): 76.5 µM
GI50 (T-47D breast): 29.7 µM
TGI (T-47D breast): > 94.1 µM
GI50 (TK-10 renal): > 100 µM
TGI (TK-10 renal): > 100 µM
GI50 (UACC-257 melanoma): 50.3 µM
TGI (UACC-257 melanoma): > 100 µM
GI50 (UACC-62 melanoma): 37.9 µM
TGI (UACC-62 melanoma): > 100 µM
GI50 (UO-31 renal): 90.4 µM
TGI (UO-31 renal): > 100 µM
